Residual activity and solubility data for 31 compounds are collected here from ChEMBL document CHEMBL5108067, “Discovery of Potent OTUB1/USP8 Dual Inhibitors Targeting Proteostasis in Non-Small-Cell Lung Cancer” (J Med Chem, 2022).

Data set [1] deals with T1, Ubiquitin thioesterase OTUB1 (Homo sapiens, UniProt Q96FW1). In words: Inhibition of N-terminal His-6 tagged OTUB1 (40 to 271 residues) (unknown origin) expressed in Escherichia coli BL21 (DE3) cells at 10 nM using Ub-Rho measured after 0.5 to 3 hrs by fluorescence based Plate reader method relative to control. The conditions noted are these: time 0.5-3 hrs, values are per cent of control.
T1 sequence (Q96FW1 whole entry, the tested form may be a part): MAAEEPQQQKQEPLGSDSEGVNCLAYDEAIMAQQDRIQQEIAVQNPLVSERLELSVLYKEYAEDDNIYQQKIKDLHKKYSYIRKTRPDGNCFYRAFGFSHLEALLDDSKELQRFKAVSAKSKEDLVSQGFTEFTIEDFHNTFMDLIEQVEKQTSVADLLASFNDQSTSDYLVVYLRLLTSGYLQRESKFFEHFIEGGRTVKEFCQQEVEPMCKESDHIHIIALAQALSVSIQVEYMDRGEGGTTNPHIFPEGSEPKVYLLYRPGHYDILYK

The target of data set [2] is T1, Ubiquitin thioesterase OTUB1. Description: Inhibition of N-terminal His-6 tagged OTUB1 (40 to 271 residues) (unknown origin) expressed in Escherichia coli BL21 (DE3) cells at 100 nM using Ub-Rho measured after 0.5 to 3 hrs by fluorescence based Plate reader method relative to control. Particulars: time 0.5-3 hrs, values are per cent of control.
Data set [3] addresses T2, Ubiquitin carboxyl-terminal hydrolase 8 (Homo sapiens) (UniProt P40818).
T2 sequence (whole entry): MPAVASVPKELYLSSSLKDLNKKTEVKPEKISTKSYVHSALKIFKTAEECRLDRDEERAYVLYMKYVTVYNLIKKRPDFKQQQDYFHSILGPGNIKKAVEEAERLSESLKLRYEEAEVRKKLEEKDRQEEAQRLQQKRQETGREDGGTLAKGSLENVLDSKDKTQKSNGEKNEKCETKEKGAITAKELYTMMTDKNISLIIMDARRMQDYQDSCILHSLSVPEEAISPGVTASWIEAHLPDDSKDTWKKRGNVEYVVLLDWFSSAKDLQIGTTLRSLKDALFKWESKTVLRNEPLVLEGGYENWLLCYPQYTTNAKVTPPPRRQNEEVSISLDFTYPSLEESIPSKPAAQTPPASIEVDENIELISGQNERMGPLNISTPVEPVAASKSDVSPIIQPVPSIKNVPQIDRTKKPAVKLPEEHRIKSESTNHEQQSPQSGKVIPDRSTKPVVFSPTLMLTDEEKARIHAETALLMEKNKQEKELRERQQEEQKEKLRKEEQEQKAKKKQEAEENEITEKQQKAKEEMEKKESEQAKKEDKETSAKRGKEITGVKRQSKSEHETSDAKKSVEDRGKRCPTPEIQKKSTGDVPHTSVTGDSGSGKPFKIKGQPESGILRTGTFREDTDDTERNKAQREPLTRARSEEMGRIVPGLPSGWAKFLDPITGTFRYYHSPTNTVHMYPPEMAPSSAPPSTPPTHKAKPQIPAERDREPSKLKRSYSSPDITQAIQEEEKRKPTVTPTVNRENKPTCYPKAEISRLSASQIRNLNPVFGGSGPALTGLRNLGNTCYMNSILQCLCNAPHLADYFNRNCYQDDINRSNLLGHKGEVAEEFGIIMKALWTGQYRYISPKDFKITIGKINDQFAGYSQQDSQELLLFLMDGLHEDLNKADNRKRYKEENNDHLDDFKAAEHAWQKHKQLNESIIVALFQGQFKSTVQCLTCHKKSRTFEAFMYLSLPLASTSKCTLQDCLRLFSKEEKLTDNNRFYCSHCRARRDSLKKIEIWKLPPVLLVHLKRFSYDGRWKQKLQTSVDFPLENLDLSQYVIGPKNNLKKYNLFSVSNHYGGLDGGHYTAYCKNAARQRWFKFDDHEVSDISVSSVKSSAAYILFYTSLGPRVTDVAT
Description: Inhibition of N-terminal His-6 tagged USP8 (734 to 1110 residues) (unknown origin) expressed in Escherichia coli BL21 (DE3) cells at 10 nM measured after 3 hrs by fluorescence based Plate reader method relative to control. Particulars: values are per cent of control.

Data set [4] has as its target T2, Ubiquitin carboxyl-terminal hydrolase 8 (Homo sapiens). In words: Inhibition of N-terminal His-6 tagged USP8 (734 to 1110 residues) (unknown origin) expressed in Escherichia coli BL21 (DE3) cells at 100 nM measured after 3 hrs by fluorescence based Plate reader method relative to control. Particulars: values are per cent of control.
Data set [5] in a line: Aqueous solubility of the compound measured after 24 hr by […] LC-MS/MS analysis. The conditions noted are these: buffer. It is filed as physicochemical.

SMILES strings stand for the structures.

For the compound `O=C1c2ccccc2C(=O)c2oc(-c3c(F)cccc3Cl)nc21`, the residual activity (usually the share of the control activity or signal that is left under treatment) in data set [1] came out at 37.3%; in data set [2] it was 9.6%; in data set [3] it was 62.9%; in data set [4] it was 26.5%. Besides, in data set [5], the solubility result is on record as “Insoluble”.

`CN1CC[C@@H](Oc2cc(-c3nc4c(o3)C(=O)c3ccccc3C4=O)ccc2Cl)C1`: the residual activity in data set [1] stood at 23.6%; in data set [2], 12.8%; in data set [3], 51.8%; in data set [4] it was 24.9%. The solubility entry in data set [5] is recorded as “Soluble”.

Consider `O=C1c2ccccc2C(=O)c2oc(-c3c(F)ccc(F)c3Cl)nc21`, for which the residual activity in data set [1] was found to be 23.3%; in data set [2], 10.4%; in data set [3], 52.4%; in data set [4], 28.4%. The solubility entry in data set [5] is recorded as “Insoluble”.

For the compound `N#Cc1ccc(-c2nc3c(o2)C(=O)c2ccccc2C3=O)cc1`, the residual activity in data set [1] was found to be 46.4%; in data set [2], 15.2%; in data set [3], 38.9%; in data set [4], 20.8%. Further, the solubility result in data set [5] is on record as “Insoluble”.

With `CN1CCN(CCOc2ccc(F)c(-c3nc4c(o3)C(=O)c3ccccc3C4=O)c2Cl)CC1`, the residual activity in data set [1] worked out at 17%; in data set [2], 8.7%; in data set [3], 26.7%; in data set [4] it was 21.4%. Besides, the solubility result in data set [5] was “Soluble”.

`O=C1c2ccccc2C(=O)c2oc(-c3cccc(F)c3F)nc21`: the residual activity in data set [1] was determined as 50.2%; in data set [2] it was 19.8%; in data set [3] it was 40.1%; in data set [4] it was 22.7%.

As to `O=C1c2ccccc2C(=O)c2oc(-c3ccccc3Cl)nc21`, the residual activity is 60% in data set [1], 25.1% in data set [2], 43.1% in data set [3] and 20.8% in data set [4].

With `O=C1c2ccccc2C(=O)c2oc(-c3cccc(Cl)c3)nc21`, the residual activity worked out at 60.4% in data set [1], 34.7% in data set [2], 66.3% in data set [3] and 49.3% in data set [4].

Take `O=C1c2ccccc2C(=O)c2oc(-c3cccc(C(F)(F)F)c3)nc21`: the residual activity came out at 23.1% in data set [1], 13.2% in data set [2], 54.4% in data set [3] and 21.6% in data set [4]. Further, in data set [5], the solubility result is reported as “Insoluble”.

In the case of `O=C1c2ccccc2C(=O)c2oc(-c3cccc([N+](=O)[O-])c3)nc21`, the residual activity in data set [1] was 47.8%; in data set [2] it was 18.9%; in data set [3], 41.9%; in data set [4] it was 29.4%.

For `Cc1ccccc1-c1nc2c(o1)C(=O)c1ccccc1C2=O`, the residual activity in data set [1] amounted to 66.4%; in data set [2], 48.4%; in data set [3] it was 63.6%; in data set [4] it was 38.1%.

Consider `CN1CCN(CCOc2cccc(-c3nc4c(o3)C(=O)c3ccccc3C4=O)c2)CC1`, for which the residual activity in data set [1] turned out to be 66.8%; in data set [2], 36.9%; in data set [3], 76.4%; in data set [4], 53.6%.

In the case of `O=C1c2ccccc2C(=O)c2oc(-c3c(Cl)cccc3Cl)nc21`, the residual activity in data set [1] turned out to be 52.4%; in data set [2] it was 21%; in data set [3] it was 44.6%; in data set [4] it was 24.9%.

With `COc1cccc(-c2nc3c(o2)C(=O)c2ccccc2C3=O)c1`, the residual activity in data set [1] was 61.7%; in data set [2] it was 30.9%; in data set [3] it was 52.7%; in data set [4] it was 32.9%.

Turning to `COc1ccc(F)c(-c2nc3c(o2)C(=O)c2ccccc2C3=O)c1Cl`, the residual activity in data set [1] worked out at 23.3%; in data set [2] it was 20.5%; in data set [3], 41.5%; in data set [4], 23.6%.

In the case of `O=C1c2ccccc2C(=O)c2oc(-c3ccc(F)cc3F)nc21`, the residual activity is 44.5% in data set [1], 19.4% in data set [2], 34.7% in data set [3] and 19.3% in data set [4].

Take `O=C1c2ccccc2C(=O)c2oc(-c3ccc(Cl)cc3Cl)nc21`: the residual activity in data set [1] was 62.4%; in data set [2], 42.2%; in data set [3], 58.4%; in data set [4], 16%.

`COc1cc(F)cc(-c2nc3c(o2)C(=O)c2ccccc2C3=O)c1`: the residual activity in data set [1] stood at 62.8%; in data set [2] it was 25.1%; in data set [3], 37.2%; in data set [4] it was 17.6%.

As to `CN1CCN(CCOc2cc(-c3nc4c(o3)C(=O)c3ccccc3C4=O)ccc2Cl)CC1`, the residual activity in data set [1] is 75.9%; in data set [2], 38.2%; in data set [3] it was 82%; in data set [4], 50.9%.

As to `COc1cc(O[C@@H]2CCN(C)C2)cc(-c2nc3c(o2)C(=O)c2ccccc2C3=O)c1`, the residual activity in data set [1] turned out to be 77.1%; in data set [2], 44.2%; in data set [3], 71.2%; in data set [4], 46.2%.

In the case of `O=C1c2ccccc2C(=O)c2oc(-c3ccc(F)cc3)nc21`, the residual activity turned out to be 55.8% in data set [1], 24.6% in data set [2], 53.5% in data set [3] and 23.3% in data set [4].

For the compound `O=C1c2ccccc2C(=O)c2oc(-c3cccc(F)c3)nc21`, the residual activity came out at 55.3% in data set [1], 26.3% in data set [2], 59.1% in data set [3] and 37.2% in data set [4].

In the case of `CN1CC[C@@H](Oc2cccc(-c3nc4c(o3)C(=O)c3ccccc3C4=O)c2)C1`, the residual activity in data set [1] is 70.7%; in data set [2] it was 34%; in data set [3] it was 68.3%; in data set [4] it was 30%.

As for `CN1CC[C@@H](Oc2ccc(-c3nc4c(o3)C(=O)c3ccccc3C4=O)c(C(F)(F)F)c2)C1`, the residual activity in data set [1] turned out to be 74.7%; in data set [2] it was 42.4%; in data set [3], 63.2%; in data set [4], 42.5%.

`O=C1c2ccccc2C(=O)c2oc(-c3ccccc3C(F)(F)F)nc21`: the residual activity in data set [1] is 62.6%; in data set [2], 25.8%; in data set [3], 50.7%; in data set [4] it was 17.7%.

With `CN(C)CCOc1cccc(-c2nc3c([nH]2)C(=O)c2ccccc2C3=O)c1`, the residual activity turned out to be 86.5% in data set [1], 80.4% in data set [2], 88.7% in data set [3] and 86.4% in data set [4].

Take `COc1cc(OC)cc(-c2nc3c(o2)C(=O)c2ccccc2C3=O)c1`: the residual activity in data set [1] was found to be 83.6%; in data set [2], 48.1%; in data set [3] it was 72.2%; in data set [4], 52.2%.

For `Cc1cccc(Cl)c1-c1nc2c(o1)C(=O)c1ccccc1C2=O`, the residual activity stood at 55.4% in data set [1], 23.5% in data set [2], 40.1% in data set [3] and 15.5% in data set [4].

Take `Cc1cccc(-c2nc3c(o2)C(=O)c2ccccc2C3=O)c1`: the residual activity in data set [1] was found to be 63.1%; in data set [2], 49.2%; in data set [3], 63.6%; in data set [4], 40.9%.

Turning to `O=C1c2ccccc2C(=O)c2oc(-c3cc(Cl)ccc3Cl)nc21`, the residual activity in data set [1] came out at 52.7%; in data set [2], 25.2%; in data set [3], 44.5%; in data set [4], 32.2%.

Consider `O=C1c2ccccc2C(=O)c2oc(-c3c(F)c(F)cc(F)c3F)nc21`, for which the residual activity turned out to be 39.4% in data set [1], 14.1% in data set [2], 38.3% in data set [3] and 24.1% in data set [4].
